Laboratory results: patent publication EP1202120A2, “Charge transport compound, elctrophotographic organophotoreceptor comprising the same, and electrographic imaging apparatus and method” (SAMSUNG ELECTRONICS CO., LTD., priority 2000, dated 2002)
Entries after “also recorded” stand apart in the source; their conditions may differ.

Experiments:
[1] = Thermal transitions by differential scanning calorimetry (glass transition temperature); assay type: physicochemical; conditions: DSC; for Tg with 50% PCZ: mixture with Polycarbonate Z binder; for Tg without binder: neat sample
Description: Thermal transition data for various charge transport compounds was collected using a TA Instruments Model 2929 Differential Scanning Calorimeter (New Castle, DE) equipped with a DSC cooling system (-70°C minimum temperature limit), and dry helium and nitrogen exchange gases. The calorimeter ran on a Thermal Analyst 2100 workstation with version 8.10B software. An empty aluminum pall was used as the reference.
Samples were tested both neat and as a mixture with Polycarbonate Z ("PCZ"). The neat samples were prepared by placing 4.0 to 8.0 mg of neat charge transport material into an aluminum sample pan and crimping the upper lid to produce a hermetically sealed sample for DSC testing. The results were normalized on a unit mass basis.
The Polycarbonate Z-mixed samples were prepared by filling the bottom portion of the aluminum sample pan with a 15-20% solid solution of the charge transport material in Polycarbonate Z, followed by air-drying overnight. Each air-dried sample was then placed in a convection oven at 50-55°C for 24-48 hours to fully remove the solvent, after which the upper sample lid was crimped on to produce a sealed sample for DSC testing. Each sample size was in the range of 7.0-15.0 mg. The results were normalized on a unit mass basis.
Each sample was subjected to the following protocol to evaluate its thermal transition behavior: • 1. Equilibrate at 0°C (Default--Nitrogen Heat Exchange Gas); • 2. Isothermal for 5 min.; • 3. External Event: Nitrogen Heat Exchange Gas; • 4. Ramp 10.0°C/min to a temperature 30°C above the melting point of the charge transport material; • 5. External Event: Helium Heat Exchange Gas; • 6. Isothermal for 5 min.; • 7. Ramp 10.0°C/min to 0°C; • 8. External Event: Nitrogen Heat Exchange Gas; • 9. Isothermal for 5 min.; • 10. Ramp 10.0°C/min to a temperature 40°C above the melting point of the charge transport material; • 11. External Event: Helium Heat Exchange Gas; • 12. Isothermal for 5 min.; • 13. Ramp 10.0°C/min to 0°C; • 14. External Event: Nitrogen Heat Exchange Gas; • 15. Isothermal for 5 min; • 16. Ramp 10.0°C/min to 275°C.
The first cycle (steps 1-7) is used to (a) remove the thermal history of the sample, (b) obtain the melting transition for crystalline charge transport materials, and (c) obtain a homogeneous charge transport material/Polycarbonate Z mixture in the event the charge transport material is crystallized during sample preparation. A homogeneous mixture can be obtained as long as the charge transport material (molten or casted) is miscible with the Polycarbonate-Z.
The second cycle (steps 8-13) is used to identify the glass transition temperature and the recrystallization or melting transitions of charge transport materials.
The third cycle (steps 14-16) is used to report the final thermal transitions.
All temperatures are reported in °C. The abbreviation "CTM" indicates charge transport compounds. The abbreviation "PCZ" indicates the Polycarbonate Z binder.

[2] = Ionization potential by electron photoemission in air; assay type: physicochemical; conditions: CTM layer without binder; error ±0.03 eV
Description: Samples for ionization potential (Ip) measurements were prepared by dissolving compounds (B), (C), (E), (F), (G), and (H) and Comparative Example A separately in tetrahydrofuran. Each solution was hand-coated on an aluminized polyester substrate that was precision coated with a methylcellulose-based adhesive sub-layer to form a charge transport material (CTM) layer. The role of this sub-layer was to improve adhesion of the CTM layer, to retard crystallization of CTM, and to eliminate the electron photoemission from the Al layer through possible CTM layer defects. No photoemission was detected from the Al layer through the sub-layer at illumination with up to 6.4 eV quantum energy light. In addition, the adhesive sub-layer was conductive enough to avoid charge accumulation on it during measurement. The thickness of both the sub-layer and CTM layer was about 0.4 µm. No binder material was used in the preparation of the samples for Ip measurements. In most cases, the thin CTM layers were in a meta-stable amorphous phase, delaying crystallization for several hours, so that the measurement of the samples was possible.
The ionization potential was measured by the electron photoemission in an air method similar to that described in "Ionization Potential of Organic Pigment Film by Atmospheric Photoelectron Emission Analysis", Electrophotography, 28, No. 4, p. 364. (1989) by E. Miyamoto, Y. Yamaguchi, and M. Yokoyama, which is hereby incorporated by reference. The samples were illuminated with monochromatic light from a quartz monochromator with a deuterium lamp source. The power of the incident light beam was 2-5×10^-8 W. The negative voltage of -300 V was supplied to the sample substrate. The counter-electrode with the 4.5×15 mm^2 slit for illumination was placed at 8 mm distance from the sample surface. The counter-electrode was connected to the input of the BK2-16 type electrometer, working in the open input regime, for the photocurrent measurement. A photocurrent of 10^-15-10^-12 amp was flowed in the circuit under illumination. The photocurrent, I, was strongly dependent on the incident light photon energy hν. The I^0.5=f(hν) dependence was plotted. Usually the dependence of the square root of photocurrent on incident light quantum energy is well described by linear relationship near the threshold [see references "Ionization Potential of Organic Pigment Film by Atmospheric Photoelectron Emission Analysis", Electrophotography, 28, No. 4, p. 364. (1989) by E. Miyamoto, Y. Yamaguchi, and M. Yokoyama; and "Photoemission in Solids", Topics in Applied Physics, 26, 1-103. (1978) by M. Cordona and L. Ley]. The linear part of this dependence was extrapolated to the hν axis, and Ip value was determined as the photon energy at the interception point.

[3] = Solubility testing in tetrahydrofuran at room temperature; conditions: tetrahydrofuran as solvent
Description: Solubility testing was performed for individual charge transport compounds at room temperature using tetrahydrofuran as a solvent. The solubility was determined as the percent solids of saturated solution. In general, it is desirable to maximize the solubility value.

SMILES	Tg with 50% PCZ [1]	Tg without binder [1]	lp (ionization potential) [2]	Solubility [3]
CCn1c2ccccc2c2cc(C=NN(CCCCCCCCCCN(N=Cc3ccc4c(c3)c3ccccc3n4CC)c3ccccc3)c3ccccc3)ccc21 [B]	83.7 °C	46 °C	5.44 eV	–
CCn1c2ccccc2c2cc(C=NN(CCCCCN(N=Cc3ccc4c(c3)c3ccccc3n4CC)c3ccccc3)c3ccccc3)ccc21 [C]	102.5 °C	84.4 °C	5.34 eV	–
CCn1c2ccccc2c2cc(C=NN(CCCCN(N=Cc3ccc4c(c3)c3ccccc3n4CC)c3ccccc3)c3ccccc3)ccc21 [D]	–	79.1 °C	–	–
CCCCCCCn1c2ccccc2c2cc(C=NN(CCCCCCCCCCN(N=Cc3ccc4c(c3)c3ccccc3n4CCCCCCC)c3ccccc3)c3ccccc3)ccc21 [E]	56.9 °C	29.3 °C	5.38 eV	–
CCCCCCCn1c2ccccc2c2cc(C=NN(CCCCCN(N=Cc3ccc4c(c3)c3ccccc3n4CCCCCCC)c3ccccc3)c3ccccc3)ccc21 [F]	78.3 °C	44.5 °C	5.23 eV	–
CCCCn1c2ccccc2c2cc(/C=N/N(CCCCCCN(/N=C/c3ccc4c(c3)c3ccccc3n4CCCC)c3ccccc3)c3ccccc3)ccc21 [H]	–	–	5.35, layer with crystal inclusions eV	limited solubility; also recorded: Insoluble
